Assay results taken from article PMC12059926, “Development and Biological Assessment of Thiazole-Based Pyridines for Targeted Therapy in Lung Cancer” (ACS Omega, 2025).
Converted amounts (≈) assume the structure as drawn.

Key:
A549 cells [1] = assay: Mitochondrial membrane potential (JC-1) by flow cytometry; format: cell-based, human; details: IC50 dose, JC-1
From the text: The mitochondrial membrane potential provides information about the state of electrons during ATP production through oxidative phosphorylation, which is essential for cellular viability. Mitochondrial dysfunction occurs when this electrical regulation is disturbed and can occur in various diseases and the process of apoptosis.[23] […] Compounds 2m, 2g, and 2c followed this, with depolarization levels exceeding 21%. The mitochondrial dysfunction in compound 2m can be considered a contributing factor to apoptosis.
Cell staining with JC-1 was performed according to the manufacturer’s recommendations for the BD , Pharmingen Flow Cytometry Kit. […] Compounds were applied at IC50 doses of no more than 1 × 10^6/mL per well in 6-well plates. After treatment, each cell suspension was transferred to a 15 mL polystyrene centrifuge tube, the cells were centrifuged at 400g for 5 min, and the supernatant was removed. 0.5 mL of freshly prepared working solution was added to each pellet, and the solution was vortexed. The test cells were soaked in JC-1 working solution at 37 °C for 10–15 min, and the cells were washed twice. After centrifugation at 400g for 5 min, each cell pellet was suspended in 0.5 mL of 1X assay buffer and vortexed. The cells were then analyzed by flow cytometer.
(§1) The apoptotic results (Annexin V-FITC, Caspase 3, JC-1) were evaluated by flow cytometry using FACS Diva Version 6.1.1. software, and the apoptotic cells were determined as the percentage of cells.

caspase-3 in A549 cells = assay: Caspase-3 activation; format: cell-based, human; details: 24 h
From the text: Caspases can take part in the cell death mechanism through both intrinsic and extrinsic pathways, with caspase-3 being the first enzyme activated in the apoptosis process.[24] Activation of the caspase-3 enzyme by the compounds, indicated as caspase-3 positive, and inhibition, indicated as caspase-3 negative, are presented in percentage terms in Table 5.
A Spectrofluorometric Caspase-3 assay kit (BD Pharmingen, Franklin Lakes, NJ) was used for determining Caspase-3 activation by measuring the caspase-3 or DEVD-cleaving activity. Initially, A549 cells at a concentration of 1 × 10^6 cells/mL underwent a washing process using phosphate-buffered saline (PBS). Subsequently, they were suspended in a cold solution known as cell lysis buffer and kept on ice for a duration of 30 min. […] In each reaction, a mixture of […] of diluted Ac DEVD-AMC (a synthetic tetrapeptide fluorogenic substrate used to measure caspase-3 activity) and 0.2 mL of 1x HEPES buffer was added to a well. Then, […] of cell lysate was introduced into each well/reaction. The reaction mixtures were incubated at 37 °C for 1 h. The amount of AMC released from Ac-DEVD-AMC was measured by using a microplate reader (PerkinElmer/Victor/X3) with an excitation wavelength of 380 nm and an emission wavelength of 460 nm. Apoptotic cell lysates containing active caspase-3 produced significant emissions compared to controls. In addition, the AMC emission of nonapoptotic control cell lysates was taken as 100%, and the emission of other cell lysates was measured relative to the emission of control cells. All experiments were repeated in duplicate. Active compounds, which are the most cytotoxic compounds, were evaluated for caspase-3 activation using previously published procedures.[40],[44]
as §1

[2] = tested on: A549 lung cancer cell line; assay: MTT cytotoxicity assay on A549 lung cancer cells; format: cell-based, human; details: for IC50: Homo sapiens, A549 cells, MTT, mean ± SD; for SI: selectivity index: L929 versus A549
Method: (§2) The synthesized final compounds (2a–2o) were initially evaluated for their cytotoxic effects to assess their anticancer activity against A549 lung cancer cells. The healthy cell line L929 (mouse fibroblast cell line) was also used to determine the selective antiproliferative properties of the compounds.
(§3) The human lung cancer cell line A549 and mouse fibroblast cell line L929 were used to evaluate the cytotoxicity of the compounds. Cells propagated under the specified conditions were cultured in 96-well plates at 5 × 10^3 cells/well. […] At the end of the incubation period, cell viability was determined by measuring the absorbance of the purple color formed by the breakdown of the MTT dye at 540 nm. Half-maximal inhibitory concentrations (IC50) were determined based on the tested concentrations of the compounds. The tests were triplicated.[38] The MTT assay for cytotoxicity of compounds was determined according to previously published procedures.[39],[40]
(§4) The concentration that inhibits 50% of the cell population was calculated as IC50 using GraphPad Prism 9.0 statistical software program, and standard deviation values were analyzed. Data are expressed as mean ± SD. Comparisons were made using one-way ANOVA for continuous variables with normal distribution, and Tukey’s test was used for post hoc analysis of group differences. p < 0.05 was considered statistically significant.
(§5) The cell viability value of the control group was considered 100%, and all viability values were calculated using the formula below. The experiment was performed in 3 replicates. [drawing 2]

A549 cells [3] = assay: Annexin V-FITC/propidium iodide apoptosis detection by flow cytometry; format: cell-based, human; details: IC50 dose, 24 h
Method: To determine whether the antiproliferative effects of the compounds on the A549 cell line proceed through the apoptotic or necrotic pathway, the assay was performed with Annexin V-FITC/propidium iodide dyes in a flow cytometry device. […] At least 10,000 cells were analyzed, and quadrant analysis was performed. The results are presented as early apoptotic cells, late apoptotic cells, viable cells, and necrotic cells in Table 3, and as a diagram in Figure 1. In control cells, the number of viable cells was 92.04%, necrotic cells were 1.16%, early apoptotic cells were 3.43%, and late apoptotic cells were 3.28%. […] Among the compounds, 2m was the most apoptosis-inducing compound, with 14.99% early apoptotic and 10.63% late apoptotic cell percentages. […] This compound was followed by compound 2c with a 13.79% early apoptotic cells and 4.03% late apoptotic cells. Among the compounds, compound 2o induced early apoptosis the least (1.87%) and necrosis the most (3.10%). […] Nonapoptotic cell death methods, such as necroptosis and pyroptosis, can be considered for the aforementioned compounds.
The compounds were treated with A549 cells at IC50 doses, and early and late apoptosis, necrosis, and viable cell ratios were determined as percentages. Cells were seeded at 37 °C in humidified air containing 5% CO2 with 10^5 cells/plate in each well. A549 cells were collected, washed twice with ice-cold PBS, and resuspended in 100 μL of binding buffer. Five μL (5 μg/mL) of Annexin V-FITC and PI were added to the cells and incubated for 15 min in the dark at room temperature (20–25 °C). Then, 400 μL of binding buffer was added to the mixture samples and analyzed on a flow cytometer. Quadrant analyses were also presented.[41] Compounds 2a, 2b, 2c, 2j, 2m, and 2o, with a satisfactory cytotoxic profile, were examined via flow cytometry to assess the apoptosis/necrosis cell ratio using previously published procedures.[42]
as §1

[4] = tested on: L929 (mouse fibroblast cell line); assay: MTT cytotoxicity assay on L929 healthy cells; format: cell-based; details: mean ± SD
Method: as §2, §3, §4, §5

MMP-9 enzyme = biological target: T1, MMP-9 enzyme (Homo sapiens, UniProt P14780); assay: MMP-9 enzyme inhibition, colorimetric kit; format: biochemical; details: for inhibition at 100 µM: compounds at 100 μM, mean ± SD
T1 construct: purchased Enzo Life Sciences Inc. (Farmingdale, NY, USA)
T1 sequence (P14780 107-444 limits assumed): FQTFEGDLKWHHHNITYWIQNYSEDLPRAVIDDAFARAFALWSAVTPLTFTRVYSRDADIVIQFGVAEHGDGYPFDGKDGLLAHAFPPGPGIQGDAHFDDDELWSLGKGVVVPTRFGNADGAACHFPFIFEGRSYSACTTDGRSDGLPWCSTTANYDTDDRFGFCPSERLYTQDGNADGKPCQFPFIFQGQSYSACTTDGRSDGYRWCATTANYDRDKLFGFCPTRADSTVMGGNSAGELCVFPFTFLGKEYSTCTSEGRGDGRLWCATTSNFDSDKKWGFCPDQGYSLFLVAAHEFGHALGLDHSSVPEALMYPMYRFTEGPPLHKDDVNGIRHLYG
Method: Compounds (2a–2o) were tested to determine their MMP-9 enzyme inhibition potential. The compounds were tested at a concentration of 100 μM, and the standard molecule NNGH at a concentration of 1.3 μM.
MMP-9 inhibition was assessed using a colorimetric kit from Enzo Life Sciences Inc. (Farmingdale, NY, USA), following procedures similar to those described in previous studies.[25],[26] A thiopeptide was used as a chromogenic substrate (Ac-PLG-[2-mercapto-4-methyl-pentanoyl]-LG-OC2H5). 2-Nitro-5-thiobenzoic acid, formed by the reaction of the sulfhydryl group produced as a result of hydrolysis of the thioester by the MMP-9 enzyme and then reaction with DTNB [5,5′-dithiobis(2-nitrobenzoic acid), Ellman’s reagent], gives absorbance at 412 nm in a microplate reader (BioTek, PowerWave, Gen5 software, Winooski, VT, USA). Based on these absorptions, MMP-9 inhibition concentrations were determined. The assays were performed in triplicate. NNGH (N-isobutyl-N-(4-methoxyphenylsulfonyl)glycyl hydroxamic acid) was used as a control inhibitor. Data were shown as mean ± SD. The inhibitor % remaining activity of MMPs was calculated using the following equation:
Inhibitor% activity remaining = (V inhibitor/V control) × 100.
The inhibition (percent) of MMPs was calculated using the following equation: [drawing 1]

| Compound | % Mitochondrial membrane polarized cells (A549 cells [1]) [%] | % Caspase-3 negative cells (caspase-3 in A549 cells) [%] | % Caspase-3 positive cells (caspase-3 in A549 cells) [%] | IC50 [2] [µg/mL] | Q1-LL viable cells (A549 cells [3]) [%] | Q1-LR early apoptotic cells (A549 cells [3]) [%] | Q1-UL necrotic cells (A549 cells [3]) [%] | Q1-UR late apoptotic cells (A549 cells [3]) [%] | IC50 [4] [µg/mL] | inhibition at 100 µM (MMP-9 enzyme) [%] | SI: selectivity index [2] | MMP-9 inhibition, result in words (MMP-9 enzyme; compared with 2f) |
| --- | --- | --- | --- | --- | --- | --- | --- | --- | --- | --- | --- | --- |
| C(=NNc1nc(-c2ccc(-c3ccccc3)cc2)cs1)c1ccncc1 [Compound 2m, 4-([1,1’-Biphenyl]-4-Yl)-2-(2-(pyridin-4-ylmethylene)hydrazinyl)thiazole] | 75.72 | 69.82 | 0.86 | 12.1 ± 0.43 (≈ 33.8 µM) | 73.32 | 14.99 | 1.07 | 10.63 | 31.2 ± 0.55 (≈ 87.7 µM) | 9.4 ± 1.22 | – | – |
| C(=NNc1nc(-c2ccc(-c3ccccc3)cc2)cs1)c1ccccn1 [Compound 2c, 4-([1,1’-Biphenyl]-4-yl)-2-(2-(pyridin-2-ylmethylene)hydrazinyl)thiazole] | 79.61 | 91.76 | 5.95 | 10.1 ± 0.38 (≈ 28.4 µM) | 81.54 | 13.79 | 0.64 | 4.03 | 125 ± 0.64 (≈ 351 µM) | 23.1 ± 2.08 | – | – |
| CS(=O)(=O)c1ccc(-c2csc(NN=Cc3cccnc3)n2)cc1 [Compound 2g, 4-(4-(Methylsulfonyl)phenyl)-2-(2-(pyridin-3-ylmethylene)hydrazinyl)thiazole] | 76.68 | 73.16 | 0.38 | 8.4 ± 0.34 (≈ 23.4 µM) | 88.98 | 7.20 | 0.98 | 2.84 | 56.4 ± 0.59 (≈ 157 µM) | 8.63 ± 1.32 | – | – |
| COc1ccc(OC)c(-c2csc(NN=Cc3ccccn3)n2)c1 [Compound 2a, 4-(2,5-Dimethoxyphenyl)-2-[2-(pyridin-2 ylmethylene)hydrazinyl]thiazole] | – | – | – | 7.3 ± 0.33 (≈ 21.4 µM) | – | – | – | – | 4.36 ± 0.32 (≈ 12.8 µM) | – | 0.60 | less active than 2f (2,5-dimethoxypehnyl) or inactive |
| Oc1ccc(-c2csc(NN=Cc3ccncc3)n2)cc1O [Compound 2n, 4-(2-(2-(Pyridin-4-ylmethylene)hydrazinyl)thiazol-4-yl)benzene-1,2-diol] | – | – | – | 4.23 ± 0.54 (≈ 13.5 µM) | – | – | – | – | 4.48 ± 0.68 (≈ 14.3 µM) | 19 ± 3.63 | 1.06 | – |
